Melting point data for 1 compound are collected here from US6458822B2, “2-oxo-imidazolidine-4-carboxylic acid hydroxamide compounds that inhibit matrix metalloproteinases” (Pfizer Inc., priority 2000, dated 2002).

Structures are written as SMILES.

The melting point is the temperature of the solid-liquid transition. The compound `COc1ccc(CN2C[C@H](C(=O)NO)NC2=O)cc1` [Example 4, (4R)-1-(4-Methoxybenzyl)-2-oxo-imidazolidine-4-carboxylic Acid Hydroxyamide] showed a melting point of 130 to 133 °C.
